Activity calls are given as the source filed them.

Here are results for two molecules from ChEMBL document CHEMBL1201862, “PubChem BioAssay data set” (2004).

Assay [1] addresses T1, High affinity choline transporter 1 (Homo sapiens, UniProt Q9GZV3).
T1 sequence (Q9GZV3 whole entry): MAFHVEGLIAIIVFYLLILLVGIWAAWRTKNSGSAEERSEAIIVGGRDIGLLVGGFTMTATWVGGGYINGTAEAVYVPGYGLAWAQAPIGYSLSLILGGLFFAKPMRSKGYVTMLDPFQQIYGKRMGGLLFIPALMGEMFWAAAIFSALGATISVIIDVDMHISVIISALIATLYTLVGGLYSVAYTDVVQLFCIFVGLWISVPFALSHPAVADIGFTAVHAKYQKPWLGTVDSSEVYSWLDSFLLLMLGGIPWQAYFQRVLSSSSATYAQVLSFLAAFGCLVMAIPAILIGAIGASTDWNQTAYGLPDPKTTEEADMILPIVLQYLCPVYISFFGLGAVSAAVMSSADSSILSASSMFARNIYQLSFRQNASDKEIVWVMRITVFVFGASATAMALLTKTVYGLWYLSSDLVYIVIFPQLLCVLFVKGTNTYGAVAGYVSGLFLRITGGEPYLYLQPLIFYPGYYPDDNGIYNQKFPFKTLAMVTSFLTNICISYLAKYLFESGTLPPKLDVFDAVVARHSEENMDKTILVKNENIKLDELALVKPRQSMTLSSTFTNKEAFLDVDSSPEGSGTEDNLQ
Description: human choline transporter blockers, potency – cell-based, 5-point CRC, membrane potential dye, dose response (AID 504840). The class given is functional.

In assay [2] the target is T1, High affinity choline transporter 1. Briefly: human choline transporter blockers, potency – cell-based, 10-point CRC, membrane potential dye, dose response (AID 588401).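 Note: membrane potential dye fluorescence of choline-evoked depolarization via CHT.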 The class given is functional.
The nature of assay [3]: Vero cell cytotoxicity, dose response, cytotoxicity control for M. tuberculosis growth inhibitor project, Vero cells, purified and synthesized compounds, set 4 (AID 504854). The note with it: Mycobacterium tuberculosis. The class given is functional.
Assay [4] can be described thus: HepG2 cell cytotoxicity, dose response, cytotoxicity control, set 3 (AID 504853). Format: functional. The note with it: Mycobacterium tuberculosis.
A short description of assay [5]: A Cell Based Secondary Assay to Explore Cytotoxicity in HepG2 Cells of Compounds that Modulate Mycobacterium tuberculosis in Media Containing Glycerol versus Media without Glycerol (2). Format: functional.
Assay [6] can be described thus: microbe, parasite or virus in culture. Format: functional. The note with it: Mycobacterium tuberculosis.
The nature of assay [7]: Vero cell cytotoxicity, cytotoxicity control for M. tuberculosis inhibitor project, purified and synthesized samples, set 3 (AID 504684). The class given is functional. The note with it: […].
Assay [8] deals with INS1. Briefly: INS-1E survival protection against cytokine death – cell-based, luminescence, retest, dose response (AID 449756).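 Note: cell death triggered by IL-1 beta plus TNF-alpha plus IFN-gamma mixture; protective hits raise ATP signal compared with cytokine alone wells.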 Format: functional. The note with it: Rattus norvegicus.
Assay [9] concerns the target T2, Streptokinase A (Streptococcus pyogenes serotype M1, UniProt P10520).
T2 sequence (P10520 whole entry): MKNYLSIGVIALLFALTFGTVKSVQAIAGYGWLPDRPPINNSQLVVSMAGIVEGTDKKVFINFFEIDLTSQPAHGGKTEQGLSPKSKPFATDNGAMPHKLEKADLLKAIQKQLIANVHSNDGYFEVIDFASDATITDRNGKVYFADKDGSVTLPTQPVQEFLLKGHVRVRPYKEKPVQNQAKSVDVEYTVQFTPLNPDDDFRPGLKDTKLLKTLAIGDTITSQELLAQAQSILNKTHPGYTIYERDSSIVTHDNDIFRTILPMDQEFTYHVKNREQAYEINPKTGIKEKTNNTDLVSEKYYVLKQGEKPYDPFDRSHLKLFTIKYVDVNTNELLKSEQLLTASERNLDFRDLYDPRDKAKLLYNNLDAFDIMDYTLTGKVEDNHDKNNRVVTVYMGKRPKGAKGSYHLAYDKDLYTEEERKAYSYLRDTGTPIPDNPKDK
Briefly: viability-normalized secreted streptokinase activity reduction – plasminogen activation absorbance, OD405, dose response (AID 1914).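 Note: secreted streptokinase activity via plasminogen activation per viability signal from cell pellet.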 The class given is functional, Streptococcus pyogenes M1 GAS.

Assay [10] is described as follows: NIH3T3 cell viability loss – ATP luminescence, mouse fibroblasts, counter-screen, dose response (AID 2010).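 Note: cells exposed to compound for about 90 hours before reading.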 The class given is functional, cell-based. On the technique in general: The purpose of a counterscreen is to sort out artefacts and off-target activity.
The nature of assay [11]: THP-1 cell cytotoxicity, dose response, cytotoxicity control, set 3 (AID 504852). The class given is functional. The note with it: Mycobacterium tuberculosis.
Assay [12] in a line: THP-1 cell cytotoxicity, cytotoxicity control, set 4 (AID 504911). Format: functional. The note with it: Mycobacterium tuberculosis.
Assay [13] is described as follows: Vero cell cytotoxicity, dose response, cytotoxicity control for M. tuberculosis growth inhibitor project, Vero cells, purified and synthesized compounds, set 5 (AID 504909). Format: functional. The note with it: Mycobacterium tuberculosis.
The nature of assay [14]: Trypanosoma cruzi growth suppression in host cells – NIH3T3 host cells, beta-gal luminescence, confirmation (AID 2044).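 Note: intracellular parasites grown in NIH/3T3 mouse fibroblasts as host cells; luminescent beta-galactosidase reporter signal from transgenic T. cruzi replicating inside host cells; inhibitors lower the luminescence signal.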 Format: functional, cell-based.
The nature of assay [15]: alpha-synuclein stem-loop luciferase translation blockers – H4 neuroglioma cells, luminescence, confirmation (AID 1988). The class given is functional, cell-based.
Assay [16] is described as follows: Vero E6 cell cytotoxicity, dose response, cytotoxicity control for non-replicating M. tuberculosis project, secondary assay (AID 492998). The note with it: Vero C1008. Format: functional, VeroE6.
Assay [17] in a line: A Cell Based Secondary Assay to Explore Cytotoxicity in THP-1 Cells of Compounds that Modulate Mycobacterium tuberculosis in Media Containing Glycerol versus Media without Glycerol (2). The class given is functional.
Assay [18] in a line: cells. Format: functional.
Assay [19] in a line: HepG2 cell cytotoxicity, cytotoxicity control, set 4 (AID 504910). The class given is functional. The note with it: Mycobacterium tuberculosis.
The test system of assay [20] is Streptococcus sp. 'group A'. Briefly: Streptococcus pyogenes SK(-)GAS viability under kanamycin – luminescence, BacTiterGlo, confirmation, counter-screen for streptokinase expression inhibitor project, dose response (AID 1900). The class given is functional, organism-based.
Assay [21] is described as follows: luciferase reporter signal suppression in cells – H4 neuroglioma cells, luminescence, dose response (AID 1990). The class given is functional, cell-based.
The subject of assay [22] is Streptococcus. Briefly: GAS UMAA2166 growth inhibition – luminescence, BacTiterGlo, counter-screen for streptokinase expression inhibitor project, dose response (AID 1915).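 Note: potency for reduction of bacterial viability or growth.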 Format: functional, organism-based.
Assay [23] can be described thus: Luminescence Cell-Based Dose Response HTS to Identify Inhibitors of 5'UTR Stem-Loop Driven Prion Protein mRNA Translation in H4 Neuroglioblastoma Cells. [Related pubchem assays: 1827 (Project Summary), 1813 (Primary HTS)]. The class given is functional.
A short description of assay [24]: THP-1 cell cytotoxicity, dose response, cytotoxicity control for non-replicating M. tuberculosis project (AID 489025). Format: functional.
Assay [25] is described as follows: HepG2 cell cytotoxicity, dose response, cytotoxicity control for non-replicating M. tuberculosis project (AID 489018). The note with it: Mycobacterium tuberculosis. The class given is functional.

Regarding `Cc1ccc[n+](CC(=O)c2ccc(Br)cc2)c1`, the IC50 in assay [1] is 0.0775 µM (inconclusive); in assay [2], 0.713 µM (active).
As for `c1ccc(N=C2N=C(Nc3ccccn3)c3ccccc32)nc1`, the CC50 in [3] is > 100 µM (active); in [4], 21.2 µM (active); in assay [5], < 0.1 µM (active); in [6], > 40 µM (active); in assay [7], < 0.2 µM (active); in assay [11], > 71.4 µM (active). Also, the CC50 in assay [12] was > 76.9 µM (active); in [13] it was 60.5 µM (active); in assay [16] it was 0.5 µM (active); in [17] it was < 0.2 µM (active); in assay [19], > 41.3 µM (active); in [24], 0.148 µM (active). Also, in assay [25], the CC50 was < 0.039 µM (active). The half-maximal activity concentration (AC50) in assay [8] was 0.795 µM (active). For the same molecule, the concentration for a half-maximal effect (EC50) in [9] is 22.2 µM (active); in [10], 17.7 µM (active); in [14], 0.687 µM (active); in assay [15], 13.4 µM (active); in [20] it was 5.41 µM (active); in assay [21] it was 10.5 µM (active). For the same molecule, the EC50 is reported as > 150 µM (not active) in assay [22] and > 120 µM (not active) in assay [23]. Besides, in assay [18], the IC50 is < 0.1 µM (active).

As a reminder, the IC50 is the point on the concentration scale where inhibition reaches its midpoint. A word on the AC50: it is the concentration at which the activity in the assay is half-maximal. What is called EC50 is the concentration at which the effect is half-maximal.
